Results from PMC6874683, “Pyrrothiogatain acts as an inhibitor of GATA family proteins and inhibits Th2 cell differentiation in vitro” (Scientific Reports, 2019).

Tested on: Th2 cells
Assay: Cytokine production of in vitro differentiated Th2 cells restimulated for 16 h (ELISA)
Assay type: cell-based, mouse
Settings: restimulated 16 h, 0 to 100 µM
Protocol: To clarify the effects of pyrrothiogatain on Th2 cell differentiation, naive CD4 T cells were purified and cultured under Th2 conditions in the presence or absence of pyrrothiogatain for 5 days, and then the Th2 cell differentiation status was determined by intracellular staining. The generation of IL-4-, IL-5-, and IL-13-producing Th2 cells was repressed by treatment with pyrrothiogatain (Fig. 5A). Decreased production and mRNA expression of IL-4, IL-5 and IL-13 were confirmed using ELISA and RT-qPCR, respectively (Fig. 5B,C). […] Next, we treated in vitro differentiated Th2 cells with pyrrothiogatain to test the effect of pyrrothiogatain on Th2 cytokine production. Total CD4^+ cells were cultured under Th2 conditions for 5 days, and then the Th2 cells were restimulated in the presence or absence of pyrrothiogatain for 16 h. […]
Figure 5 Pyrrothiogatain inhibits Th2 cell differentiation and production of Th2 cytokines. […] (B) Cytokine production induced in the pyrrothiogatain treated Th2 cells shown in panel (A) was determined by ELISA. (C) Quantitative RT-PCR analysis of the pyrrothiogatain-treated Th2 cells shown in panel (A). […] The amounts of IL-4, IL-5 and IL-13 in the culture supernatants were determined by ELSA. In (B), (C) and (E), all data are expressed as individual points of three independent experiments with error bars indicating standard deviation. […]

SMILES: Cc1ccc(C)n1-c1ccsc1C(=O)O [Pyrrothiogatain, 3-(2,5-dimethyl-1H-pyrrol-1-yl)thiophene-2-carboxylic acid]
- IL-4, IL-5 and IL-13 production of restimulated Th2 cells: decreased
